# Measurements taken from patent US20250163104A1, “MACROCYCLIC IMMUNOMODULATORS” (priority 2021, published 2025).
# pIC50: −log10 of the molar value. Where a SMILES comes first, the peptide text is derived from it. Bridges are numbered along the chain shown (N, C = ends). [ ]: non-standard residue; d: D form. The star is where a group is joined. ξ: configuration not given here. Ala(1H-tetrazol-5-yl) = N[C@@H](Cc1nnn[nH]1)C(=O)O; Phe(4-COOH) = N[C@@H](Cc1ccc(C(=O)O)cc1)C(=O)O; Bip = N[C@@H](Cc1ccc(-c2ccccc2)cc1)C(=O)O; Phe(3-Me) = Cc1cccc(C[C@H](N)C(=O)O)c1; 4Pal = N[C@@H](Cc1ccncc1)C(=O)O; Cha = N[C@@H](CC1CCCCC1)C(=O)O; Cit = NC(=O)NCCC[C@H](N)C(=O)O; Carboxymethyl = O=C(O)C*; Orn = NCCC[C@H](N)C(=O)O; Dab = NCC[C@H](N)C(=O)O; Dap = NC[C@H](N)C(=O)O; ξOrn = NCCCC(N)C(=O)O
# Molecular target: T1, human PD-1 / PD-L1-Ig binding on Jurkat cell line over-expressing human PD-1 (Jurkat-PD-1) (Homo sapiens, UniProt Q15116)
# T1 construct: expressed in transfected cells; host or cells: Jurkat
# T1 sequence (Q15116 25-288): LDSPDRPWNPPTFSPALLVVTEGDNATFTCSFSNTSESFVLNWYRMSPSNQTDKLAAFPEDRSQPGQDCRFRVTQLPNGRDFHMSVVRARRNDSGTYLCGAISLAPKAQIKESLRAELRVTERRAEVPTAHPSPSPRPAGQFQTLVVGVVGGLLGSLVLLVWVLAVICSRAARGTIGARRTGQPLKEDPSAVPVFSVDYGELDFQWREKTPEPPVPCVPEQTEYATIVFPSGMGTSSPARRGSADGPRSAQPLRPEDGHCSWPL
# Test: Jurkat-PD-1 Cell Binding High-Content Screening Assay (CBA)
# Assay type: cell-based
# Conditions: Jurkat HPD1_PDL1 IC50, Jurkat-PD-1 cells, PE-labeled PD-L1-Ig 20 nM final
# In short: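 Read-out: high-content imaging of PE-tagged PD-L1-Ig bound to Jurkat cells overexpressing human PD-1, after fixation with 4% paraformaldehyde and Hoechst 33342 nuclear staining. Ligand was used at 20 nM final for 1 hour, after a 2 h compound exposure at 37° C in serum-containing DMEM.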
row,Compound,pIC50
1,CC(C)C[C@@H]1NC(=O)[C@H](Cc2c[nH]c3ccccc23)NC(=O)[C@H](CC(=O)O)NC(=O)[C@H](Cc2ccc(OCC(=O)O)cc2)NC(=O)[C@H](CN)NC(=O)CSC[C@@H](C(=O)NCC(N)=O)NC(=O)[C@H](CO)NC(=O)[C@H](C(C)C)NC(=O)[C@H](CC2CCCCC2)NC(=O)[C@H](CC(N)=O)NC(=O)[C@@H](CC(C)C)NC(=O)[C@H](CCCN)NC(=O)[C@H](C(C)C)NC(=O)[C@H](Cc2ccc(-c3ccccc3)cc2)NC1=O [Compound 1336] ({CH2CO}-[Dap]Y(Carboxymethyl)DWL[Bip]V[Orn][dL]N[Cha]VSCG-NH2; thioether N-14),7.67

# Same assay, conditions: Jurkat-PD-1 cells, PE-labeled PD-L1-Ig 20 nM final; read-out: Jurkat HPD1_PDL1 IC50
row,Compound,pIC50
1,Cc1cccc(C[C@@H]2NC(=O)[C@H](CC(=O)O)NC(=O)[C@H](Cc3ccncc3)NC(=O)[C@H](Cc3ccc(OCC(=O)O)cc3)NC(=O)CSC[C@@H](C(=O)N[C@@H](C)C(N)=O)NC(=O)[C@H]([C@@H](C)O)NC(=O)[C@H](C(C)C)NC(=O)[C@H](CC(C)C)NC(=O)[C@H](CCN)NC(=O)[C@@H](CC(C)C)NC(=O)[C@H](CCCN)NC(=O)[C@H](CCCNC(N)=O)NC(=O)[C@H](Cc3ccc(-c4ccccc4)cc3)NC(=O)[C@H](C(C)C)NC2=O)c1 [Compound 1324] ({CH2CO}-Y(Carboxymethyl)[4Pal]D[Phe(3-Me)]V[Bip][Cit][Orn][dL][Dab]LVTCA-NH2; thioether N-14),7.81
2,Cc1cccc(C[C@@H]2NC(=O)[C@H](CC(=O)O)NC(=O)[C@H](Cc3ccncc3)NC(=O)[C@H](Cc3ccc(OCC(=O)O)cc3)NC(=O)CSC[C@@H](C(=O)N[C@@H](C)C(N)=O)NC(=O)[C@H]([C@@H](C)O)NC(=O)[C@H](C(C)C)NC(=O)[C@H](CC3CCCCC3)NC(=O)[C@H](CCN)NC(=O)[C@@H](CC(C)C)NC(=O)[C@H](CCCN)NC(=O)[C@H](CCCNC(N)=O)NC(=O)[C@H](Cc3ccc(-c4ccccc4)cc3)NC(=O)[C@H](C(C)C)NC2=O)c1 [Compound 1325] ({CH2CO}-Y(Carboxymethyl)[4Pal]D[Phe(3-Me)]V[Bip][Cit][Orn][dL][Dab][Cha]VTCA-NH2; thioether N-14),8.51
3,CC(C)C[C@H]1NC(=O)[C@H](CCCN)NC(=O)[C@H](CCCNC(N)=O)NC(=O)[C@H](Cc2ccc(-c3ccccc3)cc2)NC(=O)[C@H](C(C)C)NC(=O)[C@H](Cc2c[nH]c3ccccc23)NC(=O)[C@H](CC(=O)O)NC(=O)[C@H](Cc2ccncc2)NC(=O)[C@H](Cc2ccc(OCC(=O)O)cc2)NC(=O)CSC[C@@H](C(=O)N[C@@H](C)C(N)=O)NC(=O)[C@H]([C@@H](C)O)NC(=O)[C@H](C(C)C)NC(=O)[C@H](CC2CCCCC2)NC(=O)[C@H](CCN)NC1=O [Compound 1326],7.92
4,Cc1cccc(C[C@@H]2NC(=O)[C@H](Cc3nn[nH]n3)NC(=O)[C@H](Cc3ccc(OCC(=O)O)cc3)NC(=O)[C@H](CN)NC(=O)CSC[C@@H](C(=O)N[C@@H](C)C(N)=O)NC(=O)[C@H]([C@@H](C)O)NC(=O)[C@H](C(C)C)NC(=O)[C@H](CC3CCCCC3)NC(=O)[C@H](CCN)NC(=O)[C@@H](CC(C)C)NC(=O)[C@H](CCCN)NC(=O)[C@H](CCCNC(N)=O)NC(=O)[C@H](Cc3ccc(-c4ccccc4)cc3)NC(=O)[C@H](C(C)C)NC2=O)c1 [Compound 1327] ({CH2CO}-[Dap]Y(Carboxymethyl)[Ala(1H-tetrazol-5-yl)][Phe(3-Me)]V[Bip][Cit][Orn][dL][Dab][Cha]VTCA-NH2; thioether N-14),7.50
5,CC(C)C[C@H]1NC(=O)[C@H](CCCN)NC(=O)[C@H](CCCNC(N)=O)NC(=O)[C@H](Cc2ccc(-c3ccccc3)cc2)NC(=O)[C@H](C(C)C)NC(=O)[C@H](Cc2c[nH]c3ccccc23)NC(=O)[C@H](Cc2nn[nH]n2)NC(=O)[C@H](Cc2ccc(OCC(=O)O)cc2)NC(=O)[C@H](CN)NC(=O)CSC[C@@H](C(=O)N[C@@H](C)C(N)=O)NC(=O)[C@H]([C@@H](C)O)NC(=O)[C@H](C(C)C)NC(=O)[C@H](CC2CCCCC2)NC(=O)[C@H](CCN)NC1=O [Compound 1328] ({CH2CO}-[Dap]Y(Carboxymethyl)[Ala(1H-tetrazol-5-yl)]WV[Bip][Cit][Orn][dL][Dab][Cha]VTCA-NH2; thioether N-14),7.46
6,Cc1cccc(C[C@@H]2NC(=O)[C@H](CC(=O)O)NC(=O)[C@H](Cc3ccncc3)NC(=O)[C@H](Cc3ccc(OCC(=O)O)cc3)NC(=O)CSC[C@@H](C(=O)N[C@@H](C)C(N)=O)NC(=O)[C@H]([C@@H](C)O)NC(=O)[C@H](C(C)C)NC(=O)[C@H](CC3CCCCC3)NC(=O)[C@H](CCN)NC(=O)[C@@H](CC(C)C)NC(=O)[C@H](CCCN)NC(=O)[C@H](C(C)C)NC(=O)[C@H](Cc3ccc(-c4ccccc4)cc3)NC(=O)[C@H](C(C)C)NC2=O)c1 [Compound 1329] ({CH2CO}-Y(Carboxymethyl)[4Pal]D[Phe(3-Me)]V[Bip]V[Orn][dL][Dab][Cha]VTCA-NH2; thioether N-14),8.17
7,CC[C@H](C)[C@@H]1NC(=O)[C@H](Cc2ccc(-c3ccccc3)cc2)NC(=O)[C@H](C(C)C)NC(=O)[C@H](Cc2cccc(C)c2)NC(=O)[C@H](CC(=O)O)NC(=O)[C@H](Cc2ccncc2)NC(=O)[C@H](Cc2ccc(OCC(=O)O)cc2)NC(=O)CSC[C@@H](C(=O)N[C@@H](C)C(N)=O)NC(=O)[C@H]([C@@H](C)O)NC(=O)[C@H](C(C)C)NC(=O)[C@H](CC2CCCCC2)NC(=O)[C@H](CCN)NC(=O)[C@@H](CC(C)C)NC(=O)[C@H](CCCN)NC1=O [Compound 1330],7.89
8,CC(C)C[C@H]1NC(=O)[C@H](CCCN)NC(=O)[C@H](C(C)C)NC(=O)[C@H](Cc2ccc(-c3ccccc3)cc2)NC(=O)[C@H](C(C)C)NC(=O)[C@H](Cc2c[nH]c3ccccc23)NC(=O)[C@H](CC(=O)O)NC(=O)[C@H](Cc2ccncc2)NC(=O)[C@H](Cc2ccc(OCC(=O)O)cc2)NC(=O)CSC[C@@H](C(=O)N[C@@H](C)C(N)=O)NC(=O)[C@H]([C@@H](C)O)NC(=O)[C@H](C(C)C)NC(=O)[C@H](CC2CCCCC2)NC(=O)[C@H](CCN)NC1=O [Compound 1331],8.22
9,CC[C@H](C)[C@@H]1NC(=O)[C@H](Cc2ccc(-c3ccccc3)cc2)NC(=O)[C@H](C(C)C)NC(=O)[C@H](Cc2c[nH]c3ccccc23)NC(=O)[C@H](CC(=O)O)NC(=O)[C@H](Cc2ccncc2)NC(=O)[C@H](Cc2ccc(OCC(=O)O)cc2)NC(=O)CSC[C@@H](C(=O)N[C@@H](C)C(N)=O)NC(=O)[C@H]([C@@H](C)O)NC(=O)[C@H](C(C)C)NC(=O)[C@H](CC2CCCCC2)NC(=O)[C@H](CCN)NC(=O)[C@@H](CC(C)C)NC(=O)[C@H](CCCN)NC1=O [Compound 1332],7.93
10,CC(C)C[C@H]1NC(=O)C(CCCN)NC(=O)[C@H](CCCNC(N)=O)NC(=O)[C@H](Cc2ccc(-c3ccccc3)cc2)NC(=O)[C@H](C(C)C)NC(=O)[C@H](Cc2c[nH]c3ccccc23)NC(=O)[C@H](CC(=O)O)NC(=O)[C@H](Cc2ccc(C(=O)O)cc2)NC(=O)[C@H](CN)NC(=O)CSC[C@@H](C(=O)N[C@@H](C)C(N)=O)NC(=O)[C@H]([C@@H](C)O)NC(=O)[C@H](C(C)C)NC(=O)[C@H](CC2CCCCC2)NC(=O)[C@H](CCN)NC1=O (stereo partly drawn) [Compound 1333] ({CH2CO}-[Dap][Phe(4-COOH)]DWV[Bip][Cit][ξOrn][dL][Dab][Cha]VTCA-NH2; thioether N-14),8.16
11,CC(C)C[C@@H]1NC(=O)[C@H](Cc2c[nH]c3ccccc23)NC(=O)[C@H](CC(=O)O)NC(=O)[C@H](Cc2ccc(O)cc2)NC(=O)[C@H](Cc2ccccc2)NC(=O)CSC[C@@H](C(=O)NCC(N)=O)NC(=O)[C@H](CO)NC(=O)[C@H](C(C)C)NC(=O)[C@H](CC2CCCCC2)NC(=O)[C@H](CC(N)=O)NC(=O)[C@@H](CC(C)C)NC(=O)[C@H](CCCN)NC(=O)[C@H](C(C)C)NC(=O)[C@H](Cc2ccc(-c3ccccc3)cc2)NC1=O [Compound 1334] ({CH2CO}-FYDWL[Bip]V[Orn][dL]N[Cha]VSCG-NH2; thioether N-14),7.57
12,CC(C)C[C@@H]1NC(=O)[C@H](Cc2c[nH]c3ccccc23)NC(=O)[C@H](CC(=O)O)NC(=O)[C@H](Cc2ccc(C(=O)O)cc2)NC(=O)[C@H](Cc2ccc(OCC(=O)O)cc2)NC(=O)CSC[C@@H](C(=O)NCC(N)=O)NC(=O)[C@H](CO)NC(=O)[C@H](C(C)C)NC(=O)[C@H](CC2CCCCC2)NC(=O)[C@H](CC(N)=O)NC(=O)[C@@H](CC(C)C)NC(=O)[C@H](CCCN)NC(=O)[C@H](C(C)C)NC(=O)[C@H](Cc2ccc(-c3ccccc3)cc2)NC1=O [Compound 1335] ({CH2CO}-Y(Carboxymethyl)[Phe(4-COOH)]DWL[Bip]V[Orn][dL]N[Cha]VSCG-NH2; thioether N-14),7.68
13,CC(C)C[C@@H]1NC(=O)[C@H](Cc2c[nH]c3ccccc23)NC(=O)[C@H](CC(=O)O)NC(=O)[C@H](Cc2ccncc2)NC(=O)[C@H](CN)NC(=O)CSC[C@@H](C(=O)NCC(N)=O)NC(=O)[C@H](CO)NC(=O)[C@H](C(C)C)NC(=O)[C@H](CC2CCCCC2)NC(=O)[C@H](CC(N)=O)NC(=O)[C@@H](CC(C)C)NC(=O)[C@H](CCCN)NC(=O)[C@H](C(C)C)NC(=O)[C@H](Cc2ccc(-c3ccccc3)cc2)NC1=O [Compound 1337] ({CH2CO}-[Dap][4Pal]DWL[Bip]V[Orn][dL]N[Cha]VSCG-NH2; thioether N-14),7.57
14,CC(C)C[C@@H]1NC(=O)[C@H](Cc2c[nH]c3ccccc23)NC(=O)[C@H](CC(=O)O)NC(=O)[C@H](Cc2ccncc2)NC(=O)[C@H](Cc2ccc(OCC(=O)O)cc2)NC(=O)CSC[C@@H](C(=O)NCC(N)=O)NC(=O)[C@H](CO)NC(=O)[C@H](C(C)C)NC(=O)[C@H](CC2CCCCC2)NC(=O)[C@H](CC(N)=O)NC(=O)[C@@H](CC(C)C)NC(=O)[C@H](CCCN)NC(=O)[C@H](C(C)C)NC(=O)[C@H](Cc2ccc(-c3ccccc3)cc2)NC1=O [Compound 1338] ({CH2CO}-Y(Carboxymethyl)[4Pal]DWL[Bip]V[Orn][dL]N[Cha]VSCG-NH2; thioether N-14),7.42
